Where two headings read alike, the source gives them in different places.
Experiments:
[1] = tested on: A2780 cells; assay: Cell Proliferation Assay (Cell Titer Glo), A2780; assay type: cell-based; details: Homo sapiens, read-out: CPEC50 A2780
Outline: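 Following a 3-day compound exposure (37° C., 5% CO2) of A2780 or PC3MM cells plated at 1000 per well, viability was measured by Cell Titer Glo luminescence in fresh medium, read 10 min after reagent addition.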

[2] = biological target: T1, PDK1 kinase (Homo sapiens, UniProt O15530); assay: PDK1 Kinase Alpha Screen Assay; assay type: biochemical; details: read-out: PDK1 IC50
T1 sequence (O15530 1-556): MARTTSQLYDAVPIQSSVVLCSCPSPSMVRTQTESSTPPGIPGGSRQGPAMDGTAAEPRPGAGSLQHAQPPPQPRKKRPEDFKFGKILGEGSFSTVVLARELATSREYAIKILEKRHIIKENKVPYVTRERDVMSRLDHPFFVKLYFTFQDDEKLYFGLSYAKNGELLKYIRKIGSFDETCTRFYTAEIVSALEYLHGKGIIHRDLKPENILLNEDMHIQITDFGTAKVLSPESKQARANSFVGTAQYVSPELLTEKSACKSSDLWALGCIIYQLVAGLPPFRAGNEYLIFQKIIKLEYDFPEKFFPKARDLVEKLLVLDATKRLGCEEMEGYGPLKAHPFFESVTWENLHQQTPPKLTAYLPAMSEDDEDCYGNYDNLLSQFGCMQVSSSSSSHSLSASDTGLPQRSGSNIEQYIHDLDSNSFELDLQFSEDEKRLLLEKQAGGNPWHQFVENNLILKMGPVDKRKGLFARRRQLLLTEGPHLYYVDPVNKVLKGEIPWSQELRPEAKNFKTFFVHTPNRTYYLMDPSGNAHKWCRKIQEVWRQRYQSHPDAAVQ
Outline: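 PDK1, 10 uM ATP, 50 nM biotin-PDK1-4 peptide; 50 mM Tris pH 7.5, 10 mM MgCl2, 0.1% BSA, 0.01% Tween-20, 2 mM DTT, 2.5% DMSO; 3-18 h. EDTA stop; AlphaScreen, phospho-Ser/Thr antibody, overnight RT.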

[3] = 72 h, A2780 cells, 3 days incubation
[4] = cell proliferation, A2780 cells
[5] = Cell Proliferation Assay, A2780

Compound | EC50 [1, 3] | IC50 [2] | EC50 [1, 4] | IC50 ([2]; PDK1 Kinase Alpha Screen Assay) | also measured
NS(=O)(=O)c1ccc(Nc2ncc3cccc(-c4cnoc4)c3n2)cc1 [Compound 103, 4-(8-Isoxazol-4-yl-quinazolin-2-ylamino)-benzenesulfonamide] | < 5 µM | < 5 µM |  |  | 
NS(=O)(=O)c1ccc(Nc2ncc3cccc(OC4CNC4)c3n2)cc1 [Compound 48, 4-[8-(Azetidin-3-yloxy)-quinazolin-2-ylamino]-benzenesulfonamide] | 5 to 10 µM | < 5 µM |  |  | 
NS(=O)(=O)c1ccc(Nc2ncc3ccc(-c4ccc(F)nc4)c(-c4ccc(F)nc4)c3n2)cc1 [Compound 912, 4-(7,8-bis(6-fluoropyridin-3-yl)quinazolin-2-ylamino)benzenesulfonamide] |  |  | < 5 µM | < 5 µM | 
CC(C)NCc1cccc2cnc(Nc3ccc(S(N)(=O)=O)cc3)nc12 [Compound 897, 4-(8-((isopropylamino)methyl)quinazolin-2-ylamino)benzenesulfonamide] |  |  | < 5 µM | < 5 µM | 
CC(=O)N1CCN(Cc2cccc3cnc(Nc4ccc(S(N)(=O)=O)cc4)nc23)CC1 [Compound 924, 4-(8-((4-acetylpiperazin-1-yl)methyl)quinazolin-2-ylamino)benzenesulfonamide] |  | < 5 µM |  |  | EC50 ([1]; A2780 cells): < 5 µM
Nc1ccc(-c2ccc3cnc(Nc4ccc(S(N)(=O)=O)cc4)nc3c2OC2CCNCC2)cn1 [Compound 856, 4-(7-(6-aminopyridin-3-yl)-8-(piperidin-4-yloxy)quinazolin-2-ylamino)benzenesulfonamide] |  |  | < 5 µM | < 5 µM | 
NS(=O)(=O)c1ccc(Nc2ncc3ccc(-c4cnoc4)cc3n2)cc1 [Compound 866, 4-(7-(isoxazol-4-yl)quinazolin-2-ylamino)benzenesulfonamide] |  |  | < 5 µM | < 5 µM | 
NC(=O)c1ccc(-c2cccc3cnc(Nc4ccc(S(N)(=O)=O)cc4)nc23)cc1 [Compound 96, 4-[2-(4-Sulfamoyl-phenylamino)-quinazolin-8-yl]-benzamide] | < 5 µM | < 5 µM |  |  | 
CN1CC[C@@H](Oc2cccc3cnc(Nc4ccc(S(N)(=O)=O)cc4)nc23)C1 [Compound 38, 4-[8-((R)-1-Methyl-pyrrolidin-3-yloxy)-quinazolin-2-ylamino]-benzenesulfonamide] | < 5 µM | < 5 µM |  |  | 
NS(=O)(=O)c1ccc(Nc2ncc3cc(F)cc(-c4ccc(N5CCNC(=O)C5)nc4)c3n2)cc1 [Compound 889, 4-(6-fluoro-8-(6-(3-oxopiperazin-1-yl)pyridin-3-yl)quinazolin-2-ylamino)benzenesulfonamide] |  |  | < 5 µM | < 5 µM | 
CNC(=O)c1ccc2cnc(Nc3ccc(S(N)(=O)=O)cc3)nc2c1 [Compound 561, N-methyl-2-(4-sulfamoylphenylamino)quinazoline-7-carboxamide] |  |  |  | < 5 µM | EC50 [1, 5]: < 5 µM
CNC(=O)c1ccc(Nc2ncc3cccc(OC(C)C)c3n2)cc1 [Compound 515, 4-(8-isopropoxyquinazolin-2-ylamino)-N-methylbenzamide] |  |  |  | < 5 µM | EC50 [1, 5]: < 5 µM
Nc1ncc(-c2ccc3cnc(Nc4ccc(S(N)(=O)=O)cc4)nc3c2OC2CCNCC2)cn1 [Compound 857, 4-(7-(2-aminopyrimidin-5-yl)-8-(piperidin-4-yloxy)quinazolin-2-ylamino)benzenesulfonamide] |  |  | 5 to 10 µM | < 5 µM | 
NS(=O)(=O)c1ccc(Nc2ncc3cccc(C(=O)N4CCS(=O)(=O)CC4)c3n2)cc1 [Compound 122, 4-[8-(1,1-Dioxo-1lambda*6*- thiomorpholine-4-carbonyl)-quinazolin-2-ylamino]-benzenesulfonamide] | 5 to 10 µM | 10 to 25 µM |  |  | 
CC(C)Oc1cccc2cnc(Nc3ccc(NC(=O)CN(C)C)cc3)nc12 [Compound 313, 2-(dimethylamino)-N-(4-(8-isopropoxyquinazolin-2-ylamino)phenyl)acetamide] |  |  |  | 5 to 10 µM | EC50 [1, 5]: < 5 µM
NC(=O)c1cccc(COc2cccc3cnc(Nc4ccc(S(N)(=O)=O)cc4)nc23)c1 [Compound 513, 3-((2-(4-sulfamoylphenylamino)quinazolin-8-yloxy)methyl)benzamide] |  |  |  | < 5 µM | EC50 [1, 5]: < 5 µM
CC(C)N1CCC(Oc2ccc3cnc(Nc4ccc(S(=O)(=O)N5CCOCC5)cc4)nc3c2)CC1 [Compound 874, 7-(1-isopropylpiperidin-4-yloxy)-N-(4-(morpholinosulfonyl)phenyl)quinazolin-2-amine] |  |  | < 5 µM | < 5 µM | 
CCN(CC)Cc1cccc2cnc(Nc3ccc(S(N)(=O)=O)cc3)nc12 [Compound 916, 4-(8-((diethylamino)methyl)quinazolin-2-ylamino)benzenesulfonamide] |  | < 5 µM |  |  | EC50 ([1]; A2780 cells): < 5 µM
CC(C)N1CCC(Oc2cccc3cnc(Nc4cccc(S(=O)(=O)N5CCOCC5)c4)nc23)CC1 [Compound 6, [8-(1-Isopropyl-piper-idin-4-yloxy)-quina-zolin-2-yl]-[3-(morpholine-4-sul-fonyl)-phenyl]-amine] | < 5 µM | < 5 µM |  |  | 
CC(C)CN1CC(Oc2cccc3cnc(Nc4ccc(S(N)(=O)=O)cc4)nc23)C1 [Compound 49, 4-[8-(1-Isobutyl-azetidin-3-yloxy)-quinazolin-2-ylamino]-benzenesulfonamide] | < 5 µM | < 5 µM |  |  | 
NS(=O)(=O)c1ccc(Nc2ncc3ccc(-c4cnccn4)c(OC4CCNCC4)c3n2)cc1 [Compound 877, 4-(8-(piperidin-4-yloxy)-7-(pyrazin-2-yl)quinazolin-2-ylamino)benzenesulfonamide] |  |  | < 5 µM | < 5 µM | 
COc1ccc2cnc(Nc3ccc(S(N)(=O)=O)cc3)nc2c1 [Compound 629, 4-(7-methoxyquinazolin-2-ylamino)benzenesulfonamide] |  |  |  | < 5 µM | EC50 [1, 5]: < 5 µM
NC(=O)c1ccc(-c2ccc3cnc(Nc4ccc(S(N)(=O)=O)cc4)nc3c2OC2CCNCC2)cc1 [Compound 854, 4-(8-(piperidin-4-yloxy)-2-(4-sulfamoylphenylamino)quinazolin-7-yl)benzamide] |  |  | 5 to 10 µM | < 5 µM | 
CCN1CC(Oc2cccc3cnc(Nc4ccc(S(N)(=O)=O)cc4)nc23)C1 [Compound 50, 4-[8-(1-Ethyl-azetidin-3-yloxy)-quinazolin-2-ylamino]-benzenesulfonamide] | < 5 µM | < 5 µM |  |  | 
NC(=O)c1cccc(-c2ccc3cnc(Nc4ccc(S(N)(=O)=O)cc4)nc3c2)c1 [Compound 123, 3-[2-(4-Sulfamoyl-phenylamino)-quinazolin-7-yl]-benzamide] | 5 to 10 µM | < 5 µM |  |  | 
NS(=O)(=O)c1ccc(Nc2ncc3ccc(-c4ccccn4)c(OC4CCNCC4)c3n2)cc1 [Compound 863, 4-(8-(piperidin-4-yloxy)-7-(pyridin-2-yl)quinazolin-2-ylamino)benzenesulfonamide] |  |  | < 5 µM | < 5 µM | 
CC(C)Cn1cc(-c2ccc3cnc(Nc4ccc(S(N)(=O)=O)cc4)nc3c2OC2CCNCC2)cn1 [Compound 876, 4-(7-(1-isobutyl-1H-pyrazol-4-yl)-8-(piperidin-4-yloxy)quinazolin-2-ylamino)benzenesulfonamide] |  |  | < 5 µM | < 5 µM | 
CN1CCN(c2ccc(-c3ccc4cnc(Nc5ccc(S(N)(=O)=O)cc5)nc4c3)cn2)CC1 [Compound 879, 4-(7-(6-(4-methylpiperazin-1-yl)pyridin-3-yl)quinazolin-2-ylamino)benzenesulfonamide] |  |  | < 5 µM | < 5 µM | 

— patent publication US7932262B2 (Novartis AG, priority 2006, dated 2011)
